“Also recorded” adds a separate entry of the source. Where no end group is shown, it is not given here.
Columns and labels:
[1] = tested on: WT mice; assay: Plasma insulin 5 minutes after i.p. glucose with peptides, wild type mice; assay type: in vivo, mouse
Description: (§1) WT and DT mice were fasted for 16-h (Fast). As indicated, some mice were then administered an intraperitoneal injection of glucose (1 g/kg) with vehicle alone (BSA), GIP alone, Xenin-25 alone (Xen) or GIP plus Xenin-25 (G+X). […] Five minutes after injection of glucose, blood was collected and plasma prepared for insulin assays.
(§2) WT and DT mice were fasted for 16-h (Fast). As indicated, some mice were then administered an intraperitoneal injection of glucose (1 g/kg) with vehicle alone (BSA), GIP alone, Xenin-25 alone (Xen) or GIP plus Xenin-25 (G+X). Five minutes later, blood was collected. Plasma was then prepared and assayed for insulin.
(§3) Activation of parasympathetic neurons that innervate the pancreas can increase glucose-mediated insulin release in vivo. […] Wild type and GIP/DT mice were fasted overnight and then administered glucose in combination with GIP plus Xenin-25 by intraperitoneal injection. […] Blood was collected and plasma prepared 5 minutes after the glucose injection. […] Subsets of parasympathetic neurons that innervate the islets release vasoactive intestinal polypeptide (VIP) and pituitary adenylate cyclase activating peptide (PACAP) when activated. N-terminally truncated forms of PACAP [PACAP(6-38) or PACAP(6-27)] are competitive inhibitors of both VIP receptors (VPAC1 and VPAC2) as well as the PACAP-specific receptor Pac.

[2] = tested on: GIP/DT mice; assay: Plasma insulin 5 minutes after i.p. glucose with peptides, GIP/DT mice; assay type: in vivo, mouse
Description: as §1, §2, §3

[3] = tested on: perfused rat pancreas; conditions: supraphysiologic concentrations; cited from earlier work
[4] = tested on: primary mouse islets; assay: Insulin release assay (static incubation) with primary mouse islets; assay type: cell-based; conditions: 100 nM peptide, 60 min, RIA
Description: (§4) Primary mouse islets (panel A) or MIN6 cells (panel B) were incubated for 1-h in insulin assay buffer (KRB) containing 2.5 mM glucose. Islets or cells were then switched to KRB containing the indicated concentration of glucose with or without 100 nM GIP, GLP-1, Xenin-8, or Xenin-25. Sixty-minutes later, assay buffer was collected and the amount of insulin released determined by RIA.
as §4, with “islets” for “islets (panel A) or MIN6 cells (panel B)”, “Islets” for “Islets or cells”, “Xenin-8.” for “GIP, GLP-1, Xenin-8, or Xenin-25.”
(§5) Insulin release assays (static incubations) were conducted at the indicated concentration of glucose with islets isolated from WT C57BL/6J mice (Panel A; 5 islets per sample; 6 samples per condition) or Min6 cells (Panels B, C; 4 wells per condition). 100 nM GIP, GLP-1, or Xenin-25 (Xen) was added to some samples in Panels A, B. Peptides were added at the indicated concentrations in Panels C.
Experiments were conducted to determine whether Xenin-25 acts directly on pancreatic islet beta cells (FIG. 23). Islets were isolated from wild type C57BL/6J mice and then subjected to insulin release assays (FIG. 23A) in the presence of different concentrations of glucose. […]

[5] = tested on: MIN6 cells; assay: Insulin release assay with MIN6 cells; assay type: cell-based; conditions: for glucose-stimulated insulin release: MIN6 cells, 100 nM peptide, 60 min
Description: as §4, §5
Next, studies were performed with MIN6 cells, a well-characterized, glucose-responsive, insulin-producing cell line. First, insulin release assays were conducted in the presence of peptides. […] Second, Min6 cells were treated with GLP-1, GIP, or Xenin-25 and Western blots conducted to determine whether the Xenin-25 increased MAPK signaling. […] Finally, insulin release assays were conducted in the presence of GIP plus Xenin-25.

[6] = tested on: MAPK signaling in Min6 Cells; assay: Western blot for phosphorylated (active) MAPK in Min6 cells; assay type: cell-based; conditions: 10 minutes, 7.5 mM glucose, 100 nM peptide
[7] = tested on: NONcNZO10/Ltj mice; assay: Blood glucose after i.p. glucose plus peptides in mouse model of human T2DM; assay type: in vivo; conditions: glucose 1 g/kg i.p.
Description: Panel A depicts blood glucose levels in 5-week old pre-diabetic mice. Panel B depicts blood glucose levels in 16-week old diabetic mice. Panel C depicts the area under the curve for data in panels A and B as well as for a third experiment using 18-week old mice. * indicates P value<0.05 versus mice of the same age receiving BSA alone.
At the age indicated in FIG. 21, mice were fasted for 16-h. Blood glucose levels were measured before and at the indicated time after an intraperitoneal injection of glucose (1 g/kg) plus vehicle alone (BSA), GIP alone, Xenin-25 alone (Xen) or GIP plus Xenin-25 (GIP+Xen).

[8] = tested on: NONcNZO10/Ltj mice; assay: Plasma insulin after i.p. glucose plus peptides in mouse model of human T2DM; assay type: in vivo; conditions: 8-week old pre-diabetic mice (FIG. 22A); 15 minutes after i.p. glucose 1 g/kg
Description: Panel A depicts plasma insulin levels in 8-week old pre-diabetic mice.
NONcNZO10/Ltj mice were fasted for 16-h. Blood was collected before (0) or 15 minutes after an intraperitoneal injection of glucose (1 g/kg) in the presence of vehicle alone (BSA), GIP alone, Xenin-25 alone (Xen) or GIP plus Xenin-25 (GIP+Xen). […] (FIG. 22A).

CN1[C@@H]2CC[C@H]1C[C@@H](OC(=O)C(CO)c1ccccc1)C2 (stereo partly drawn) [atropine]
effect on insulin release with GIP plus Xenin-25 ([1]; wild type mice, atropine i.p. 15 minutes before glucose): no statistically significant effect on insulin release

PACAP(6-38): N-terminally truncated PACAP; competitive inhibitor of VIP receptors (VPAC1 and VPAC2) and PACAP-specific receptor (FTDSYSRYRKQMAVKKYLAAVLGKRYKQRVKNK; ends and bridges not checked; UniProt P18509 137-169, looked up, fragment)
inhibition of Xenin-25 potentiation of GIP-mediated increase in plasma insulin ([2]; given along with peptides (FIG. 25C), mouse line not stated): did not inhibit Xenin-25 potentiation of the GIP-mediated increase in plasma insulin levels

Xenin: xenin protein, form (xenin-25 or fragment) not specified at the place (MLTKFETKSARVKGLSFHPKRPWIL; Xenin; UniProt P53621 1-25, looked up)
glucose-stimulated insulin release [3]: increased glucose-stimulated insulin release

glucagon like peptide 1 (HAEGTFTSDVSSYLEGQAAKEFIAWLVKGR; ends and bridges not checked; UniProt P01275 98-127, looked up) [GLP-1, incretin hormone; synthetic GLP-1(7-36) used in vivo]
glucose-stimulated insulin release [4]: insulin release is potentiated; also recorded: potentiate glucose-stimulated insulin release | glucose-stimulated insulin release [5]: glucose-stimulated insulin release was amplified; also recorded: potentiate glucose-stimulated insulin release | phosphorylation of MAPK [6]: profound increases in phosphorylation of MAPK

glucose-dependent insulinotropic polypeptide [GIP]
glucose-stimulated insulin release [4]: insulin release is potentiated; also recorded: potentiate glucose-stimulated insulin release | glucose-stimulated insulin release [5]: glucose-stimulated insulin release was amplified; also recorded: potentiate glucose-stimulated insulin release | insulin release, GIP with/without Xenin-25 ([5]; Min6 cells, peptides at indicated concentrations (FIG. 23C)): dose-dependent increase in insulin release | phosphorylation of MAPK [6]: profound increases in phosphorylation of MAPK | increase in plasma insulin levels ([1]; WT mice, 5 minutes after i.p. glucose 1 g/kg): greater than 3 fold | plasma insulin levels ([2]; GIP/DT mice, 5 minutes after i.p. glucose 1 g/kg): much smaller increase in plasma insulin levels than was observed in WT mice | blood glucose levels after i.p. glucose ([7]; 5-week old pre-diabetic mice): does not significantly improve blood glucose levels | blood glucose levels after i.p. glucose ([7]; 16-week old diabetic mice): modest improvement in blood glucose levels | plasma insulin levels [8]: little effect on plasma insulin levels
